Molecular target: Uracil nucleotide/cysteinyl leukotriene receptor (Homo sapiens, UniProt Q13304)
Assay: GPR17 cAMP Assay Protocol
Experimental: GPR17 cAMP Assay Protocol: CHO-K1 cells stably expressing vector containing untagged human GPR17 short isoform (Roche) were cultured at 37° C./5% CO2 in DMEM (Dulbecco's Modified Eagle Medium):F-12 (1:1) supplemented with 10% foetal bovine serum and 400 μg/ml Geneticin. Changes in intracellular cyclic adenosine monophosphate (cAMP) levels were quantified using the Nano-TRF Detection Assay kit (Roche Diagnostics, Cat. No. 05214386001). This assay allows for direct cAMP quantification in a homogeneous solution, cAMP is detected based on time-resolved fluorescence energy transfer (TR-FRET) and competitive binding of ruthenylated cAMP and endogenous cAMP to an anti-cAMP monoclonal antibody labeled with AlexaFluor-700. The Ruthenium complex serves as the FRET donor and transfers energy to AlexaFluor-700. The FRET signal is inversely proportional to the cAMP concentration. CHO-GPR17S cells were detached with Accutase and resuspended in assay buffer consisting of Hank's Balanced Salt Solution (HBSS), 10 mM HEPES (4-(2-hydroxyethyl) piperazine-1-ethanesulfonic acid solution) and 0.1% bovine serum albumin (pH 7.4). The cells were seeded in black 384-well plates (Corning) at a density of 10,000 cells/20 μl assay buffer until the addition of compounds.

Uracil nucleotide/cysteinyl leukotriene receptor, sequence (Q13304 whole entry): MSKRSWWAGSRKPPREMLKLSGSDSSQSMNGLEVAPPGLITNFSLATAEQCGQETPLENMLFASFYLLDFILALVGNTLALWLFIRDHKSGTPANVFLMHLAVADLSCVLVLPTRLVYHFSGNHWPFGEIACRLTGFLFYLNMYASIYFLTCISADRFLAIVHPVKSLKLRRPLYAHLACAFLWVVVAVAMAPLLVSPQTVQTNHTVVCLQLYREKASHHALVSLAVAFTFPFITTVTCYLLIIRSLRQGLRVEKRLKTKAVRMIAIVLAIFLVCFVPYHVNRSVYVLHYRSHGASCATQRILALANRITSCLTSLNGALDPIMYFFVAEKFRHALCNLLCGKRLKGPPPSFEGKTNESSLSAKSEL

| SMILES | IC50 [nM] |
| --- | --- |
| COc1nc(NS(=O)(=O)c2c[nH]c3c(C#N)c(Cl)ccc23)nc(OC)c1OCC(F)F [US20240025883, Example 226] | 35 |
| COc1nc(NS(=O)(=O)c2c[nH]c3cc(F)ccc23)nc(OC)c1OC(F)(F)CF [US20240025883, Example 87] | 66 |
| COc1nc(NS(=O)(=O)c2c[nH]c3cc(Cl)ccc23)nc(OC)c1OCC(F)F [US20240025883, Example 54] | 17 |
| COc1nc(NS(=O)(=O)c2c[nH]c3cc(Cl)ccc23)nc(OC)c1OC(F)(F)CF [US20240025883, Example 55] | 17 |
| COc1nc(NS(=O)(=O)c2c[nH]c3c4c(ccc23)COC4)ncc1CC(F)F [US20240025883, Example 228] | 161 |
| COc1nc(NS(=O)(=O)c2c[nH]c3c(C#N)c(Cl)ccc23)nc(OC)c1OCCF [US20240025883, Example 225] | 32 |
| COc1nc(NS(=O)(=O)c2c[nH]c3c(C#N)c(Cl)ccc23)nc(OC)c1CC(F)F [US20240025883, Example 227] | 22 |
| COc1nc(NS(=O)(=O)c2c[nH]c3cc(SC)ccc23)ncc1CC(F)F [US20240025883, Example 193] | 96 |
| COc1nc(NS(=O)(=O)c2c[nH]c3cc(C(F)F)ccc23)nc(OC)c1OCC(F)F [US20240025883, Example 102] | 14 |
| COc1nc(NS(=O)(=O)c2c[nH]c3nc(C(F)F)ccc23)nc(OC)c1OCC(F)F [US20240025883, Example 96] | 29 |
| COc1nc(NS(=O)(=O)c2c[nH]c3nc(C(F)F)ccc23)nc(OC)c1OC(F)(F)CF [US20240025883, Example 97] | 50 |
| COc1nc(NS(=O)(=O)c2c[nH]c3nc(C(F)F)ccc23)nc(OC)c1OCCF [US20240025883, Example 95] | 68 |

Source: BindingDB's records for patent US20240025883 (Hoffmann-La Roche, 2024)
